Experimental data: patent US20240299347A1, “METHODS AND COMPOSITIONS TO TREAT HUNTINGTON'S DISEASE BY TARGETING ALOX5- MEDIATED FERROPTOSIS” (The Trustees of Columbia University in the City of New York, priority 2023, published 2024)

Legend:
[1] = tested on: HTTQ94 Tet-on HT-22 cells; assay: Cell death assay, HTTQ94 Tet-on HT-22 cells under ROS stress (TBH); format: cell-based, mouse; details: for effect of inhibitor on HTTQ94-mediated cell death upon ROS stress: then TBH 10 μM 8 h, Ferr-1 2 μM, Lipro-1 2 μM, DFO 100 μM, zVAD 10 μM, 3 MA 2 mM, Nec1 10 μM, Zileuton 10 μM, MK886 10 μM
Description: (A) Representative phase-contrast images of cell death from the HTTQ94 tet-on HT-22 cells. HTTQ94 Tet-on HT-22 cells were pre-incubated with doxycycline (0.5 μg/ml) for 4 h, and then treated with TBH (10 μM) for 8 h in the presence or absence of the ferroptosis inhibitors (ferrostatin-1, Ferr1, 2 μM; liproxstatin-1, Lipor1, 2 μM and DFO, 100 μM), apoptosis inhibitor (Z-VADFMK, zVAD, 10 μM), autophagy inhibitor (3-methylademine, 3 MA, 2 mM) or necroptosis inhibitor (necrostatin-1, Nec1, 10 μM). (B) Quantification of cell death, related to panel A. Three replicates for each group. […] Cell death were calculated from three replicates; Data shown in (B), (C), and (E) are means±SD. P-values were derived from two-tailed unpaired t-test. (***) P≤0.001, (**) P≤0.01, (*) P≤0.05, (n.s.) P >0.05.

[2] = tested on: HT-22 HTTQ94 inducible cells; assay: TfR1 immunofluorescence staining of ferroptotic cells; format: cell-based, mouse; details: doxycycline 1 μg/ml O/N
Description: FIGS. 13A-D. TfR1 staining is able to specifically recognize ferroptotic cells induced by HTTQ94 expression. (A) Limb clasping analysis in HD and HD/Alox5null mice (9-, 11- and 13-week-old). p<0.01, n=7. (B-D), TfR1 staining in HT-22 HTTQ94 inducible cells upon TBH treatment. HT-22 HTTQ94 inducible cells were treated 1 μg/ml doxycycline O/N to induce HTTQ94 expression, followed by treatment with 30 μM TBH for 6 h, and then cells were stained with TfR1 antibody. (B) Representative images of TfR1 staining. (C) Quantification of TfR1 staining. (D) Cell death assay, related to panel B. Data shown in (A) are means±SD. Data shown in (C) and (D) are means±SEM. P-values were derived from two-tailed unpaired t-test. (***) P<0.001, (**) P≤0.01, (*) P<0.05, (n.s.) P >0.05.
For cell line: HT-22 HTTQ94 inducible cells were fixed with 2% paraformaldehyde at RT for 20 min, and then incubated with blocking buffer (10% donkey serum, 0.3% Triton X-100 in PBS), followed by incubation with TfR1 antibody (1: 250, Thermo Fisher Scientific, Cat #13-6800) for 1 h, and then incubation with Alexa 568 conjugated secondary antibody (1:250, Thermo Fisher Scientific, Cat #A11004) for additional 1 h.

[3] = tested on: HTTQ94 Tet-on HT-22 cells; assay: Cell death assay, HTTQ94 Tet-on HT-22 cells treated with glutamate; format: cell-based, mouse; details: doxycycline 0.5 μg/ml and glutamate 10 mM, 20 h; for effect of inhibitor on HTTQ94-mediated ferroptosis upon glutamate induction: Ferr-1 2 μM, Zileuton 10 μM
Description: (G) Cell death assay in HTTQ94 Tet-on HT-22 cells. Cells were transfected with control siRNA (ctrl) or ALOX5 siRNA, followed by incubation with doxycycline (0.5 μg/ml) and glutamate (10 mM) for 16 h in the presence or absence of Ferr-1 (2 μM). Cell death were calculated from three replicates; Data shown in (A), (C), (E) and (G) are means±SD. P-values were derived from two-tailed unpaired t-test.
(E) Cell death assay. The HTTQ94 Tet-on HT-22 cells were treated with doxycycline (0.5 μg/ml) and glutamate (10 mM) in the presence or absence of Ferr-1(2 μM) or Zileuton (10 μM) for 20 h. […] Data shown in (B), (C), (D) and (E) are are means±SD. P-values were derived from two-tailed unpaired t-test.
Cells were plated at 20˜30% density one day prior to siRNAs transfection.
Cells were treated with ferroptosis inducer TBH or erastin or glutamate combined with other drugs or conditions. At indicated time points, cells were trypsinized and stained with trypan blue followed by counting with a hemocytometer using the cell number counter (Life technologies countess II). Living cells and dead cells were all counted, and cells stained blue were considered as dead cells.

[4] = tested on: mHTT-mediated ferroptosis; assay: mHTT-mediated ferroptosis (summary statement); format: cell-based; details: general statement
[5] = tested on: HTTQ94 Tet-on HT-22 cells; assay: Cell death assay, HTTQ94 Tet-on HT-22 cells treated with erastin; format: cell-based, mouse; details: doxycycline 0.5 μg/ml 4 h, then Erastin 1 μM 12 h; Ferr-1 2 μM, ROSI 10 μM, TRO 10 μM
Description: (B) HTTQ94 Tet-on HT-22 cells were pre-incubated with doxycycline (0.5 μg/ml) for 4 h, and then treated with Erastin (1 μM) for 12 h with/without Ferr-1 (2 μM). […] (E) Cell death assay. Control, HTTQ94 and HTTQ19 fragment Tet-on H1299 cells pre-incubated with doxycycline (0.5 μg/ml) for 16 h were treated with Erastin (30 μM) for 48 h with/without Ferr-1 (2 μM). Cell death were calculated from three replicates; Data shown in (B) and (E) are the means±SD. P-values were derived from two-tailed unpaired t-test. (***) P≤0.001, (**) P≤0.01, (*) P≤0.05, (n.s.) P >0.05.
(A) Cell death assay. HTTQ94 Tet-on HT-22 cells pre-incubated with doxycycline (0.5 μg/ml) for 4 h were treated with Erastin (1 μM) for 12 h in the presence or absence of ferrostatin-1 (Ferr-1, 2 μM) or ACSL4 inhibitors (rosiglitazone, ROSI, 10 μM; troglitazone, TRO, 10 μM). (B) Cell death assay. […] Cell death were calculated from three replicates. […]
Cells were treated with ferroptosis inducer TBH or erastin or glutamate combined with other drugs or conditions. […] Living cells and dead cells were all counted, and cells stained blue were considered as dead cells. Quantification of cell death was further confirmed using ToxiLight Non-destructive Cytotoxicity BioAssay Kit (LT07-117; Lonza). Data were collected using GloMax® Explorer Multimode Microplate Reader (Promega).

[6] = tested on: cellular models of Huntington's disease (HD); details: Skouta et al. 2014; cited from earlier work

Compound: CC(=O)N(O)CCCCCNC(=O)CCC(=O)N(O)CCCCCNC(=O)CCC(=O)N(O)CCCCCN [DFO]
- effect of inhibitor on HTTQ94-mediated cell death upon ROS stress ([1]; doxycycline 0.5 μg/ml 4 h): specifically blocked

Compound: CC(C)(C)OO [TBH, tert-butyl hydroperoxide]
- cell death induced by inducer alone ([1]; TBH 10 μM 8 h, no HTTQ94 induction): failed to induce any cell death
- cell death induced by inducer combined with HTTQ94 expression ([1]; doxycycline 0.5 μg/ml 4 h, TBH 10 μM 8 h): high levels of cell death
- levels of anti-TfR1 antibody staining cells with inducer upon HTTQ94 induction ([2]; TBH 30 μM 6 h): dramatically increased

Compound: Clc1cccc(CN=C2Nc3ccccc3NC23CCNCC3)c1 [Lipro-1, liproxstatin-1]
- effect of inhibitor on HTTQ94-mediated cell death upon ROS stress ([1]; doxycycline 0.5 μg/ml 4 h): specifically blocked

Compound: CC(c1cc2ccccc2s1)N(O)C(N)=O (racemic) [Zileuton, (±)-1 (1-Benzo[b]thien-2-ylethyl)-1-hydroxyurea]
- effect of inhibitor on HTTQ94-mediated ferroptosis upon glutamate induction [3]: completely blocked
- block of mHTT-mediated ferroptosis [4]: effectively blocked

Compound: CCOC(=O)c1ccc(NC2CCCCC2)c(N)c1 [ferrostatin-1]
- effect of inhibitor on HTTQ94-mediated cell death (ferroptosis) upon erastin [5]: completely inhibited
- effect of inhibitor on HTTQ94-mediated cell death upon ROS stress ([1]; doxycycline 0.5 μg/ml 4 h): specifically blocked
- effect of inhibitor on HTTQ94-mediated ferroptosis upon glutamate induction [3]: inhibited
- effect of inhibitor on levels of anti-TfR1 antibody staining ([2]; then TBH 30 μM 6 h, with Ferr-1): abolished
- rescue of cell death [6]: significantly rescued

Compound: N[C@@H](CCC(=O)O)C(=O)O [glutamate]
- cell death induced by inducer upon HTTQ94 expression [3]: high levels of cell death
